# In patent publication US20230125249A1 (FIRMENICH SA, priority 2017, published 2023):
# Tests used:
# Olfr1440 = target: T1, Olfr1440 (Mus musculus, UniProt Q8VFV4); experiment: Control enhancement experiment on mouse ortholog receptor; format: cell-based
# T1 construct: expressed in transfected cells
# T1 sequence (Q8VFV4 1-315): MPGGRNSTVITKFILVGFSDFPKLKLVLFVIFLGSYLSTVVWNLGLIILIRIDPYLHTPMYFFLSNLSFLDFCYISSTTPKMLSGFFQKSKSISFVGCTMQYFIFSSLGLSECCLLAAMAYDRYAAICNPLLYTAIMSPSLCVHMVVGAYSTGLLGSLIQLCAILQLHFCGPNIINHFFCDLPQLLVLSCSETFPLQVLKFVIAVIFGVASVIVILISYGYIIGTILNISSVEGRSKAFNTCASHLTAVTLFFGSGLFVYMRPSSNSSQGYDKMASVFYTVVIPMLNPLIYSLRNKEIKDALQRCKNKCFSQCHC
# Description: (§1) The level of enhancement of the OR5AN1 olfactory receptor activation was evaluated at distinct concentrations of the enhancer. […] The curves were obtained by applying the simplified Allosteric EC50 shift effect equation (available in Prism5, v. 5.02) derived from the ternary complex interaction model.
# Furthermore and as a control, a similar experiment was performed on the mouse MUSCENONE® responsive odorant receptor Olfr1440, the ortholog of OR5AN1.
# [1] = target: T2, OR5AN1 olfactory receptor (Homo sapiens, UniProt Q8NGI8); experiment: Dose-response of individual candidate alone (intrinsic agonist activity) on OR5AN1; format: cell-based
# T2 construct: expressed in transfected cells
# T2 sequence (Q8NGI8 1-311): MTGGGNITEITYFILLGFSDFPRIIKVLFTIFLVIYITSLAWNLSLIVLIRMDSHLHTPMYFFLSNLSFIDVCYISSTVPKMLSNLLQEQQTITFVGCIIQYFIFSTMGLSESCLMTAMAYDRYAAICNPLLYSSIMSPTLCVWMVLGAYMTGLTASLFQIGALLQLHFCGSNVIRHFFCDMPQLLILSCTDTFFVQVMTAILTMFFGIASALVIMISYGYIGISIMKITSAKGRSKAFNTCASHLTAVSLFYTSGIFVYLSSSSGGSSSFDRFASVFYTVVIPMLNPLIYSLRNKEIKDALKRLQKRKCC
# Description: 15 candidates, marked as “enhancement” in Table 2 were identified. Strikingly, 80% of these putative enhancers (12/15) belonged to the same class of chemicals: unsaturated aliphatic aldehydes. Next, two parallel dose-response experiments to confirm the true enhancement properties of the potential candidates were performed. First, a dose-response of each individual candidate was performed to determine if it was an agonist by itself. Second, a MUSCENONE® dose-response curve in the presence and absence of a 250 μM concentration of the putative modulator was assessed for EC50 shifts.
# [2] = target: T2, OR5AN1 olfactory receptor; experiment: Allosteric EC50 shift analysis: MUSCENONE® dose response with serial concentrations of enhancer; format: cell-based
# Description: as §1
# [3] = target: T2, OR5AN1 olfactory receptor; experiment: MUSCENONE®/musk dose-response on OR5AN1 in presence and absence of putative modulator (EC50 shift, span); format: cell-based; conditions: enhancer at 250 μM, FIG. 3A
# Description: Next, two parallel dose-response experiments to confirm the true enhancement properties of the potential candidates were performed. First, a dose-response of each individual candidate was performed to determine if it was an agonist by itself.
# The resulting enhancement was quantified by means of EC50-fold shift (potency increase) and the efficacy span ratio (efficacy increase).
# The EC50-fold shift was obtained by dividing the EC50 of MUSCENONE® +compound by the reference EC50 MUSCENONE® alone. The span ratio was obtained by dividing the span of MUSCENONE®+compound by the reference span of MUSCENONE® alone.
# OR5AN1 allele 4 = experiment: Cell based assay of hypofunctional OR5AN1 allele 4 with and without enhancer; design: species or system human; conditions: allele 4, presence vs absence of enhancer
# OR5AN1 allele 3 = experiment: Cell based assay of hypofunctional OR5AN1 allele 3 with and without enhancer; design: species or system human; conditions: allele 3, presence vs absence of enhancer
smiles,measurement,setting,value
CCCCCCCCCC/C=C/C=O [tridecylenic aldehyde],Effect on Olfr1440 MUSCENONE®-induced activation,Olfr1440,slight inhibition
same,Activation of OR5AN1 by the compound by itself,[1],did not activate the OR5AN1 olfactory receptor by itself
same,Activation by compound alone relative to the MUSCENONE® activation window,[1]; above approximately 100 μM,less than 8%
same,α (cooperativity factor),"[2]; Allosteric EC50 shift model, enhancer 0 to 1 mM",15.7
same,Kb,[2]; read-out: KB (equilibrium dissociation constant),259 µM
same,Maximal activation level (span) of MUSCENONE®,[3],increased span
same,Activity span-ratio,OR5AN1 allele 4,2.16
same,Activity span-ratio,OR5AN1 allele 3,2.02
